From patent US10669268B2, “Bicyclic derivatives” (Hoffmann-La Roche Inc., priority 2012, dated 2020)

Biological target: ATX (human His-tagged) (Homo sapiens (Human), UniProt Q13822)
Test: Human ATX enzyme inhibition assay (fluorescence quenching, MR121 substrate)
Format: biochemical
Details: 30 nM ATX, 1 μM MR121 substrate, 30° C., pH 8.0
Description: Human ATX Enzyme Inhibition Assay
Assay working solutions were made as follows:
Assay buffer (50 mM Tris-HCl, 140 mM NaCl, 5 mM KCl, 1 mM CaCl2, 1 mM MgCl2, 0.01% Triton-X-100, pH 8.0;
MR121 substrate solution: MR121 substrate stock solution (800 μM MR121 substrate in DMSO), diluted to 2-5× final concentration in assay buffer.
10 μL of MR121 substrate solution was added (1 μM final concentration), mixed 30 times and then incubated for 15 minutes at 30° C.

SMILES | IC50 [nM]
O=C(OCc1cc(Cl)cc(Cl)c1)N1CC[C@@H]2CN(C(=O)c3ccc4[nH]nnc4c3)C[C@H]2C1 (relative stereo) [Example 1.09, trans-3,5-dichlorobenzyl 2-(1H-benzo[d][1,2,3]triazole-5-carbonyl)hexahydro-1H-pyrrolo[3,4-c]pyridine-5(6H)-carboxylate] | 9
O=C(OCc1cc(Cl)cc(Cl)c1)N1CC[C@H]2CN(C(=O)c3ccc4[nH]nnc4c3)C[C@H]2C1 (relative stereo) [Example 1.10, cis-3,5-dichlorobenzyl 2-(1H-benzo[d][1,2,3]triazole-5-carbonyl)hexahydro-1H-pyrrolo[3,4-c]pyridine-5(6H)-carboxylate] | 78
CS(=O)(=O)c1cc(Cl)cc(COC(=O)N2CC[C@@H]3CN(C(=O)c4ccc5[nH]nnc5c4)C[C@H]3C2)c1 (relative stereo) [Example 1.23, trans-2-(1H-benzotriazole-5-carbonyl)-octahydro-pyrrolo[3,4-c]pyridine-5-carboxylic acid 3-chloro-5-methanesulfonyl-benzyl ester] | 58
O=C(OCc1ccc(OC(F)(F)F)cc1)N1CC[C@@H]2CN(C(=O)c3ccc4[nH]nnc4c3)C[C@H]2C1 (relative stereo) [Example 1.24, trans-2-(1H-benzotriazole-5-carbonyl)-octahydro-pyrrolo[3,4-c]pyridine-5-carboxylic acid 4-trifluoromethoxy-benzyl ester] | 13
O=C(COc1ccc(OC(F)(F)F)cc1)N1CC[C@@H]2CN(C(=O)c3ccc4[nH]nnc4c3)C[C@H]2C1 (relative stereo) [Example 1.25, 1-[trans-2-(1H-benzotriazole-5-carbonyl)-octahydro-pyrrolo[3,4-c]pyridin-5-yl]-2-(4-trifluoromethoxy-phenoxy)-ethanone] | 114
O=C(OCc1ccc(F)cc1C(F)(F)F)N1CC[C@@H]2CN(C(=O)c3ccc4[nH]nnc4c3)C[C@H]2C1 (relative stereo) [Example 1.30, trans-2-(1H-benzotriazole-5-carbonyl)-octahydro-pyrrolo[3,4-c]pyridine-5-carboxylic acid 4-fluoro-2-trifluoromethyl-benzyl ester] | 20
O=C(OCc1ccc(C(F)(F)F)cc1C1CC1)N1CC[C@@H]2CN(C(=O)c3ccc4[nH]nnc4c3)C[C@H]2C1 (relative stereo) [Example 1.31, trans-2-(1H-benzotriazole-5-carbonyl)-octahydro-pyrrolo[3,4-c]pyridine-5-carboxylic acid 2-cyclopropyl-4-trifluoromethyl-benzyl ester] | 21
COc1cc(OC(F)(F)F)ccc1COC(=O)N1CC[C@@H]2CN(C(=O)c3ccc4[nH]nnc4c3)C[C@H]2C1 (relative stereo) [Example 1.33, trans-2-(1H-benzotriazole-5-carbonyl)-octahydro-pyrrolo[3,4-c]pyridine-5-carboxylic acid 2-methoxy-4-trifluoromethoxy-benzyl ester] | 21
O=C(OCc1cc(Cl)cc(Cl)c1)N1CC[C@@H]2CN(C(=O)c3ccc4[nH]c(=O)oc4c3)C[C@H]2C1 (relative stereo) [Example 2, trans-3,5-Dichlorobenzyl 2-(2-oxo-2,3-dihydrobenzo[d]oxazole-6-carbonyl)hexahydro-1H-pyrrolo[3,4-c]pyridine-5(6H)-carboxylate] | 10
CS(=O)(=O)c1cc(COC(=O)N2C[C@H]3CCN(C(=O)c4ccc5[nH]nnc5c4)C[C@@H]3C2)cc(C(F)(F)F)c1 (relative stereo) [Example 4.01, trans-5-(1H-benzotriazole-5-carbonyl)-octahydro-pyrrolo[3,4-c]pyridine-2-carboxylic acid 3-methanesulfonyl-5-trifluoromethyl-benzyl ester] | 41
O=C(OCc1cc(Cl)cc(Cl)c1)N1C[C@@H]2CCN(C(=O)c3ccc4[nH]nnc4c3)C[C@@H]2C1 (relative stereo) [Example 4.08, cis-3,5-dichlorobenzyl 5-(1H-benzo[d][1,2,3]triazole-5-carbonyl)hexahydro-1H-pyrrolo[3,4-c]pyridine-2(3H)-carboxylate] | 47
O=C(OCc1cc(Cl)cc(Cl)c1)N1C[C@H]2CCN(C(=O)c3ccc4[nH]nnc4c3)C[C@@H]2C1 (relative stereo) [Example 4.10, trans-3,5-dichlorobenzyl 5-(1H-benzo[d][1,2,3]triazole-5-carbonyl)hexahydro-1H-pyrrolo[3,4-c]pyridine-2(3H)-carboxylate] | 4
O=C(OCc1cc(Cl)cc(Cl)c1)N1C[C@H]2CCN(C(=O)c3ccc4[nH]nnc4c3)C[C@@H]2C1 (relative stereo) [Example 12A, trans-3,5-dichlorobenzyl 5-(1H-benzo[d][1,2,3]triazole-5-carbonyl)-hexahydro-lH-pyrrolo[3,4-c]pyridine-2(3H)-carboxylate] | 11
O=C(OCc1cc(Cl)cc(Cl)c1)N1C[C@H]2CCN(C(=O)c3ccc4[nH]nnc4c3)C[C@@H]2C1 (relative stereo) [Example 12B, trans-3,5-dichlorobenzyl 5-(1H-benzo[d][1,2,3]triazole-5-carbonyl)-hexahydro-lH-pyrrolo[3,4-c]pyridine-2(3H)-carboxylate] | 5
O=C(/C=C/c1cc(Cl)cc(Cl)c1)N1CC[C@@H]2CN(C(=O)c3ccc4[nH]nnc4c3)C[C@H]2C1 (relative stereo) [Example 13, (E)-1-[trans-2-(1H-Benzotriazole-5-carbonyl)-octahydro-pyrrolo[3,4-c]pyridin-5-yl]-3-(3,5-dichloro-phenyl)-prop-2-en-1-one] | 57
O=C(c1ccc2[nH]nnc2c1)N1CC[C@@H]2CN(c3nnc(-c4ccc(Cl)cc4)o3)C[C@H]2C1 (relative stereo) [Example 14, (1H-Benzotriazol-5-yl)-{trans-2-[5-(4-chloro-phenyl)-[1,3,4]oxadiazol-2-yl]-octahydro-pyrrolo[3,4-c]pyridin-5-yl}-methanone] | 926
O=C(CCc1ccc(OC(F)(F)F)cc1)N1CC[C@@H]2CN(C(=O)c3ccc4[nH]nnc4c3)C[C@H]2C1 (relative stereo) [Example 17.15, 1-[trans-2-(1H-benzotriazole-5-carbonyl)-octahydro-pyrrolo[3,4-c]pyridin-5-yl]-3-(4-trifluoromethoxy-phenyl)-propan-1-one] | 47
O=C(CCc1ccc(OC(F)(F)F)cc1)N1CC[C@@H]2CN(Cc3ccc4[nH]nnc4c3)C[C@H]2C1 (relative stereo) [Example 17.16, 1-[trans-2-(1H-benzotriazol-5-ylmethyl)-octahydro-pyrrolo[3,4-c]pyridin-5-yl]-3-(4-trifluoromethoxy-phenyl)-propan-1-one] | 309
O=C(OCc1cc(Cl)cc(Cl)c1)N1CC[C@@H]2CN(C(=O)c3ccc4[nH]nnc4c3)C[C@H]2C1 (single isomer, unassigned) [Example 11A, trans-3,5-dichlorobenzyl 2-(1H-benzo[d][1,2,3]triazole-5-carbonyl)-hexahydro-1H-pyrrolo[3,4-c]pyridine-5(6H)-carboxylate] | 22
